# In patent publication US9376376B2, “Substitute diphenylamine compounds use thereof as antitumor agents” (SINOCHEM CORPORATION, priority 2012, dated 2016):
# Where two headings read alike, the source gives them in different places.
# Legend:
# [1] = test system: non-small cell lung cancer NCI-H358; experiment: In vitro cell inhibition assay, CCK-8 method, NCI-H358; format: cell-based, human; conditions: Non-small-cell carcinoma NCI-H358, CCK-8 method, read-out: The half maximal inhibitory concentration (IC50)
# Experimental: (§1) After the cell culture flasks gently shaking, culture fluid was discarded in clean bench. […] Cells were collected and transferred to centrifuge tube. For the non-adherent cells HL-60, CCRF-CEM and MOLT-4, cell flasks were picked up from incubator and then transferred to the centrifuge tubes directly. After cells were collected using centrifuge at 1000 rpm/min for 5 min, the fluid was discarded. Then cells were washed for one time by PBS, discard fluid. Then add some medium, count cells under inverted microscope using blood cell counting plate, according the counting number to making the density of adherent cell was 1×10^5 cells/mL, the non-adherent cell was 2×10^5 cells/mL (the volumes of HL-60, CCRF-CEM, MOLT-4 are smaller than non-adherent cells, these cells added to each well was much more higher). Add 50 μL aliquots to each well of 96-well plates (the density of adherent cells was 5000 cells/well, non-adherent cells was 10000 cells/well). Blank control, Negative control, blank control with compounds and positive control wells were grouped, and three replicate wells were used for each data point in the experiments. Then the cells were cultured in 5% incubator for overnight at 37° C., Then the different concentration compounds were added to each well. […] The absorbance (A) of each well was read at 450 nm using a plate reader.
# colon cancer COLO-205 = experiment: In vitro cell inhibition assay, CCK-8 method, COLO-205
# leukemia HL-60 cells [2] = experiment: In vitro cell inhibition assay, CCK-8 method, HL-60; format: cell-based, human; conditions: for Proliferation inhibitory effect of the compounds on HL-60 cells (% of Control): CCK-8 method; for IC50: leukemia HL-60, CCK-8 method, read-out: The half maximal inhibitory concentration (IC50)
# Experimental: (§2) After the cell culture flasks gently shaking, culture fluid was discarded in clean bench. […] Cells were collected and transferred to centrifuge tube. For the non-adherent cells HL-60, CCRF-CEM and MOLT-4, cell flasks were picked up from incubator and then transferred to the centrifuge tubes directly. After cells were collected using centrifuge at 1000 rpm/min for 5 min, the fluid was discarded. Then cells were washed for one time by PBS, discard fluid. Then add some medium, count cells under inverted microscope using blood cell counting plate, according the counting number to making the density of adherent cell was 1×10^5 cells/mL, the non-adherent cell was 2×10^5 cells/mL (the volumes of HL-60, CCRF-CEM, MOLT-4 are smaller than non-adherent cells, these cells added to each well was much more higher). Add 50 μL aliquots to each well of 96-well plates (the density of adherent cells was 5000 cells/well, non-adherent cells was 10000 cells/well). Blank control, Negative control, blank control with compounds and positive control wells were grouped, and three replicate wells were used for each data point in the experiments. Then the cells were cultured in 5% incubator for overnight at 37° C., Then the different concentration compounds were added to each well. After incubation for 48 h, according to the manufacturer's instructions, CCK-8 reagent (10 μl) was added and incubation was continued for a further 2-4 h. The absorbance (A) of each well was read at 450 nm using a plate reader.
# [3] = test system: non-small cell lung cancer A549 cells; experiment: In vitro cell inhibition assay, CCK-8 method, A549; format: cell-based, human; conditions: for Proliferation inhibitory effect of the compounds on A549 cells (% of Control): 48 h incubation; for IC50: Non-small-cell carcinoma A549, CCK-8 method, read-out: The half maximal inhibitory concentration (IC50)
# Experimental: as §2
# [4] = test system: nasopharyngeal carcinoma CNE; experiment: In vitro cell inhibition assay, CCK-8 method, CNE; format: cell-based, human; conditions: read-out: The half maximal inhibitory concentration (IC50)
# Experimental: as §1
# [5] = test system: non-small cell lung cancer NCI-H1650; experiment: In vitro cell inhibition assay, CCK-8 method, NCI-H1650; format: cell-based, human; conditions: Non-small-cell carcinoma NCI-H1650, CCK-8 method, read-out: The half maximal inhibitory concentration (IC50)
# Experimental: as §1
# prostate cancer DU-145 = experiment: In vitro cell inhibition assay, CCK-8 method, DU-145; format: cell-based, human; conditions: Prostate cancer DU-145, CCK-8 method, read-out: The half maximal inhibitory concentration (IC50)
# Experimental: as §1
# leukemia CCRF-CEM = experiment: In vitro cell inhibition assay, CCK-8 method, CCRF-CEM; format: cell-based, human; conditions: read-out: The half maximal inhibitory concentration (IC50)
# Experimental: as §1
# hepatocarcinoma SK-HEP-1 = experiment: In vitro cell inhibition assay, CCK-8 method, SK-HEP-1; format: cell-based, human; conditions: hepatocarcinoma SK-HEP-1, CCK-8 method, read-out: The half maximal inhibitory concentration (IC50)
# Experimental: as §1
# leukemia MOLT-4 = experiment: In vitro cell inhibition assay, CCK-8 method, MOLT-4; format: cell-based, human; conditions: leukemia MOLT-4, CCK-8 method, read-out: The half maximal inhibitory concentration (IC50)
# Experimental: as §1
# glioma U251 = experiment: In vitro cell inhibition assay, CCK-8 method, U251; format: cell-based, human; conditions: glioma U251, CCK-8 method, read-out: The half maximal inhibitory concentration (IC50)
# Experimental: as §1
# pancreatic cancer BXPC-3 = experiment: In vitro cell inhibition assay, CCK-8 method, BXPC-3; format: cell-based, human; conditions: pancreatic cancer BXPC-3, CCK-8 method, read-out: The half maximal inhibitory concentration (IC50)
# Experimental: as §1
# cervical cancer Hela = experiment: In vitro cell inhibition assay, CCK-8 method, Hela; format: cell-based, human; conditions: read-out: The half maximal inhibitory concentration (IC50)
# Experimental: as §1
# osteosarcoma MG-63 = experiment: In vitro cell inhibition assay, CCK-8 method, MG-63; format: cell-based, human; conditions: osteosarcoma MG-63, CCK-8 method, read-out: The half maximal inhibitory concentration (IC50)
# Experimental: as §1
# lung cancer A549 cell = experiment: In vitro cell inhibition assay (MTT method), A549; format: cell-based, human; conditions: 48 h incubation
# Experimental: (§3) The human cancer cell lines used for this assay were lung cancer A549 and leukemia HL-60.
# (§4) The A549 or HL-60 cells were picked up from cell incubator, after washed for twice using PBS, cells were digested by 0.25% trypsin, and then add medium to terminate the digestion. After cells were collected using centrifuge and re-suspended, count cells under inverted microscope and add medium to make a density was 5×10^4 cells/mL. After 100 μL aliquots were added to each well of 96-well microtiter plates, cells were cultured in 5% incubator for overnight at 37° C., then the different concentration compounds were added to each well. After incubation for 48 h, MTT solution was added to each well and plates were then incubated for 4 h. The MTT tetrazolium was reduced to formazan by living cells. Then the formazan crystals were dissolved though adding DMSO to each well. The absorbance was read at 570 nm with a microplate reader.
# leukemia HL-60 cells [6] = experiment: In vitro cell inhibition assay (MTT method), HL-60; format: cell-based, human; conditions: 48 h
# Experimental: as §3, §4
# colon cancer HT-29 = experiment: In vitro cell inhibition assay, CCK-8 method, HT-29; format: cell-based, human; conditions: Colorectal Cancer HT-29, CCK-8 method, read-out: The half maximal inhibitory concentration (IC50)
# Experimental: as §1
# bladder cancer T24 = experiment: In vitro cell inhibition assay, CCK-8 method, T24; format: cell-based, human; conditions: bladder cancer T24, CCK-8 method, read-out: The half maximal inhibitory concentration (IC50)
# Experimental: as §1
# breast cancer MDA-MB-231 = experiment: In vitro cell inhibition assay, CCK-8 method, MDA-MB-231; format: cell-based, human; conditions: breast cancer MDA-MB-231, CCK-8 method, read-out: The half maximal inhibitory concentration (IC50)
# Experimental: as §1
# [7] = test system: intracranial malignant melanoma A375; experiment: In vitro cell inhibition assay, CCK-8 method, A375; format: cell-based, human; conditions: melanoma A375, CCK-8 method, read-out: The half maximal inhibitory concentration (IC50)
# Experimental: as §1
# prostate cancer PC-3 = experiment: In vitro cell inhibition assay, CCK-8 method, PC-3; format: cell-based, human; conditions: Prostate cancer PC-3, CCK-8 method, read-out: The half maximal inhibitory concentration (IC50)
# Experimental: as §1
structure (smiles),measurement,setting,value
N#Cc1c(Cl)c(Cl)c(Nc2c(Cl)cc(Cl)cc2Cl)c(C#N)c1Cl [Compound 6-93],IC50,[1],443 nM
same,IC50,"colon cancer COLO-205; read-out: The half maximal inhibitory concentration (IC50), Colorectal Cancer COLO-205, CCK-8 method",125 nM
same,Proliferation inhibitory effect of the compounds on HL-60 cells (% of Control),leukemia HL-60 cells [2]; concentration 0.01 μM,30.19 % of Control
same,Proliferation inhibitory effect of the compounds on HL-60 cells (% of Control),leukemia HL-60 cells [2]; concentration 0.1 μM,44.96 % of Control
same,Proliferation inhibitory effect of the compounds on HL-60 cells (% of Control),leukemia HL-60 cells [2]; concentration 1 μM,82.05 % of Control
same,Proliferation inhibitory effect of the compounds on HL-60 cells (% of Control),leukemia HL-60 cells [2]; concentration 10 μM,87.80 % of Control
same,Proliferation inhibitory effect of the compounds on HL-60 cells (% of Control),leukemia HL-60 cells [2]; concentration 100 μM,93.71 % of Control
same,IC50,leukemia HL-60 cells [2],85 nM
same,Proliferation inhibitory effect of the compounds on A549 cells (% of Control),"[3]; CCK-8, 0.01 μM",14.77 % of Control
same,Proliferation inhibitory effect of the compounds on A549 cells (% of Control),"[3]; CCK-8, 0.1 μM",19.35 % of Control
same,Proliferation inhibitory effect of the compounds on A549 cells (% of Control),"[3]; CCK-8, 1 μM",70.04 % of Control
same,Proliferation inhibitory effect of the compounds on A549 cells (% of Control),"[3]; CCK-8, 10 μM",87.64 % of Control
same,Proliferation inhibitory effect of the compounds on A549 cells (% of Control),"[3]; CCK-8, 100 μM",98.18 % of Control
same,IC50,[3],715 nM
same,IC50,[4],6080 nM
same,IC50,[5],1370 nM
same,IC50,prostate cancer DU-145,646 nM
same,IC50,leukemia CCRF-CEM,< 10 nM
same,IC50,hepatocarcinoma SK-HEP-1,489 nM
same,IC50,leukemia MOLT-4,167 nM
same,IC50,glioma U251,1620 nM
same,IC50,pancreatic cancer BXPC-3,331 nM
same,IC50,cervical cancer Hela,1510 nM
same,IC50,osteosarcoma MG-63,196 nM
same,Proliferation inhibitory effect of the compounds on A549 cell (% of Control),lung cancer A549 cell; 0.01 μM,12.1 % of Control
same,Proliferation inhibitory effect of the compounds on A549 cell (% of Control),lung cancer A549 cell; 0.1 μM,39.4 % of Control
same,Proliferation inhibitory effect of the compounds on A549 cell (% of Control),lung cancer A549 cell; 1 μM,74.8 % of Control
same,Proliferation inhibitory effect of the compounds on A549 cell (% of Control),lung cancer A549 cell; 10 μM,80.3 % of Control
same,Proliferation inhibitory effect of the compounds on A549 cell (% of Control),lung cancer A549 cell; 100 μM,98.2 % of Control
same,Proliferation inhibitory effect of the compounds on HL-60 cells (% of Control),leukemia HL-60 cells [6]; concentration 0.01 μM,0 % of Control
same,Proliferation inhibitory effect of the compounds on HL-60 cells (% of Control),leukemia HL-60 cells [6]; concentration 0.1 μM,51.8 % of Control
same,Proliferation inhibitory effect of the compounds on HL-60 cells (% of Control),leukemia HL-60 cells [6]; concentration 1 μM,70.7 % of Control
same,Proliferation inhibitory effect of the compounds on HL-60 cells (% of Control),leukemia HL-60 cells [6]; concentration 10 μM,72.3 % of Control
same,Proliferation inhibitory effect of the compounds on HL-60 cells (% of Control),leukemia HL-60 cells [6]; concentration 100 μM,74.8 % of Control
same,IC50,colon cancer HT-29,224 nM
same,IC50,bladder cancer T24,603 nM
same,IC50,breast cancer MDA-MB-231,175 nM
same,IC50,[7],160 nM
same,IC50,prostate cancer PC-3,1360 nM
CC(=O)O[C@H]1C(=O)[C@@]2(C)[C@H]([C@H](OC(=O)c3ccccc3)[C@]3(O)C[C@H](OC(=O)[C@H](O)[C@@H](NC(=O)c4ccccc4)c4ccccc4)C(C)=C1C3(C)C)[C@]1(OC(C)=O)CO[C@@H]1C[C@@H]2O [Taxol],IC50,[1]; Homo sapiens,278 nM
same,IC50,"colon cancer COLO-205; Homo sapiens, COLO 205, read-out: The half maximal inhibitory concentration (IC50)",< 10 nM
same,IC50,leukemia HL-60 cells [2]; Homo sapiens,< 10 nM
same,IC50,[3]; Homo sapiens,83500 nM
same,IC50,[4]; Homo sapiens,> 100000 nM
same,IC50,[5]; Homo sapiens,420 nM
same,IC50,prostate cancer DU-145; Homo sapiens,17400 nM
same,IC50,leukemia CCRF-CEM; Homo sapiens,< 10 nM
same,IC50,"hepatocarcinoma SK-HEP-1; Homo sapiens, SK-HEP1",47 nM
same,IC50,leukemia MOLT-4; Homo sapiens,< 10 nM
same,IC50,"glioma U251; Homo sapiens, U-251",> 100000 nM
same,IC50,pancreatic cancer BXPC-3; Homo sapiens,< 10 nM
same,IC50,cervical cancer Hela; Homo sapiens,< 10 nM
same,IC50,osteosarcoma MG-63; Homo sapiens,< 10 nM
same,IC50,colon cancer HT-29; Homo sapiens,> 100000 nM
same,IC50,bladder cancer T24; Homo sapiens,3540 nM
same,IC50,breast cancer MDA-MB-231; Homo sapiens,2020 nM
same,IC50,"[7]; Homo sapiens, A-375",55300 nM
same,IC50,prostate cancer PC-3; Homo sapiens,69000 nM
